Here are results for 5 compounds from publication PMC5540273, “Progress towards a public chemogenomic set for protein kinases and a call for contributions” (PLoS ONE, 2017).

Holding throughout (assay): KINOMEscan competition binding
One test has as its target T1, ACVR1 (Homo sapiens, UniProt Q04771).
T1 sequence (Q04771 21-509): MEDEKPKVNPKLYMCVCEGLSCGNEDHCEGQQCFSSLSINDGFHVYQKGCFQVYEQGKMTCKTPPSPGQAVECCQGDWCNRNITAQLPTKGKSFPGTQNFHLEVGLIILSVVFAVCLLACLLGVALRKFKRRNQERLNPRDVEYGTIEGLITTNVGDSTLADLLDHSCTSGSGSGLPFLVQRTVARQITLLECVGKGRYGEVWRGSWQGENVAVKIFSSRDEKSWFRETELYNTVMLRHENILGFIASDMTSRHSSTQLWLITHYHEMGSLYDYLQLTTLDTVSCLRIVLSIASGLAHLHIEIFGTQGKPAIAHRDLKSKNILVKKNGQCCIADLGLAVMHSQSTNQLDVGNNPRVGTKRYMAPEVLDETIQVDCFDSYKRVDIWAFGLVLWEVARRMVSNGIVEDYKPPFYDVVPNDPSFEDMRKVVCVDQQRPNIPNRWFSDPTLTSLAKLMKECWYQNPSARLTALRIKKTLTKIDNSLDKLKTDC
As to conditions: read-out: %Inh ACVR1.

For another test, the target named is CLK4 (Homo sapiens, UniProt Q9HAZ1). The following applies: read-out: %Inh CLK4.
Chain of CLK4 (Q9HAZ1 whole entry): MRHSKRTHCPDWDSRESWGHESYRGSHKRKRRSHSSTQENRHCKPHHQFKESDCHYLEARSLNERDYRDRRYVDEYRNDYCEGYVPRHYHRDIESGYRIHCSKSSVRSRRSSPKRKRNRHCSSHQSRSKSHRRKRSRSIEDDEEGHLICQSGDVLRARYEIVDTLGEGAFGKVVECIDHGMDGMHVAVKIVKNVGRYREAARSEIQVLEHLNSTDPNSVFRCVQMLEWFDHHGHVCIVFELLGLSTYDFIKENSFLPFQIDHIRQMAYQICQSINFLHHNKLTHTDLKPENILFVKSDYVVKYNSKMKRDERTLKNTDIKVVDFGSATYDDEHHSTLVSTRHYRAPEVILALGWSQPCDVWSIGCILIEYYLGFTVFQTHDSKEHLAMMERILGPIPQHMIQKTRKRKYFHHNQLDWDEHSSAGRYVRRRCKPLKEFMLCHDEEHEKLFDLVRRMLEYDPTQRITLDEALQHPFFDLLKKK
A further test has as its target T2, DLK (Homo sapiens, UniProt Q12852).
T2 sequence (Q12852 1-859): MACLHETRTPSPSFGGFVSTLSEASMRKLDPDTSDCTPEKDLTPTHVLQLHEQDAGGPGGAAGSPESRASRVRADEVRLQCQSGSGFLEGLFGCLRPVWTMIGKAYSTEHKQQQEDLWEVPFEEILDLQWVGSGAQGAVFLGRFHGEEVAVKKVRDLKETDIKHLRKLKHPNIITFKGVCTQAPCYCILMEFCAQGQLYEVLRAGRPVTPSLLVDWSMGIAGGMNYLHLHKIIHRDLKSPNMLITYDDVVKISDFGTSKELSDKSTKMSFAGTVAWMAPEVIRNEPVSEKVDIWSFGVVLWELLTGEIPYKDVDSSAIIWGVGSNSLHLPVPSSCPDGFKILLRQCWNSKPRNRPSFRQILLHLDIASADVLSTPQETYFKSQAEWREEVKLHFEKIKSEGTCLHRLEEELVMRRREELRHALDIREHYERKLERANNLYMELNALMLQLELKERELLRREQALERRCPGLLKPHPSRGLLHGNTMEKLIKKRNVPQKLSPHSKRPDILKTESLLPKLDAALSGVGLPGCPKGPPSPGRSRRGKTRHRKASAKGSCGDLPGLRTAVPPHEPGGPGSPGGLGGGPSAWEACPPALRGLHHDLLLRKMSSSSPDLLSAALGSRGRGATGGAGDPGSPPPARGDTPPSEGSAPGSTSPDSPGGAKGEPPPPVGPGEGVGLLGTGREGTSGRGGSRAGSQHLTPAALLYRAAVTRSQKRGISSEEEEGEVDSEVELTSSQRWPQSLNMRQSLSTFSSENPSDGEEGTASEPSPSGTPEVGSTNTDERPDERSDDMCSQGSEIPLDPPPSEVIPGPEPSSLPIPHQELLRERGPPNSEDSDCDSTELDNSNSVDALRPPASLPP
As to conditions: read-out: %Inh DLK.

A further test deals with T3, EPHB6 (Homo sapiens, UniProt O15197).
T3 sequence (O15197 32-1021): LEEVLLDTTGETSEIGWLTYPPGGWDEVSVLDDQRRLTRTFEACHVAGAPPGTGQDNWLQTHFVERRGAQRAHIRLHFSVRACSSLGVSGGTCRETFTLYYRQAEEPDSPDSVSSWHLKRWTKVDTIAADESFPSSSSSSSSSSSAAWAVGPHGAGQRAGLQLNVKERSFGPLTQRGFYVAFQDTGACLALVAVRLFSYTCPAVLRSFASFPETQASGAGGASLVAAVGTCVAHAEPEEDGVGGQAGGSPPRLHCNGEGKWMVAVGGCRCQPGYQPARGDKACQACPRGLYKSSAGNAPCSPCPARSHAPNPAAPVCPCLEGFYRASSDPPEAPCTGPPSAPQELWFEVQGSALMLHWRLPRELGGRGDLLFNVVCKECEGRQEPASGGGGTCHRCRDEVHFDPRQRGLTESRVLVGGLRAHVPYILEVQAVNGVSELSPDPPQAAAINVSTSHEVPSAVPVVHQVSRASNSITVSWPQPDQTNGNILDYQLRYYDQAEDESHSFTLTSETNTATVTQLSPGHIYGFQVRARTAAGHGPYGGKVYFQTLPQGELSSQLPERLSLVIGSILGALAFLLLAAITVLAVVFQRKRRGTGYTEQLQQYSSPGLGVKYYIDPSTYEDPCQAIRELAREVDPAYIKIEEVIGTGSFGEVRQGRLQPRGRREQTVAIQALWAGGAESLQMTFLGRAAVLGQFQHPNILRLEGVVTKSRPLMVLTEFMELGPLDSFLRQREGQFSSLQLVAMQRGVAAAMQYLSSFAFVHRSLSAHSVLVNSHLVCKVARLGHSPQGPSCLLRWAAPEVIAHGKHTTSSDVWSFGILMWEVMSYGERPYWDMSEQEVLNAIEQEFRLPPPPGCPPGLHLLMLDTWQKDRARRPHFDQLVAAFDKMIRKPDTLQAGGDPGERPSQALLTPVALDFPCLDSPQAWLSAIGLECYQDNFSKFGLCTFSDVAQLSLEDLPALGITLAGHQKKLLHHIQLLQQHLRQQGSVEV
The following applies: read-out: %Inh EPHB6.

In another test the target is T4, ERK8 (Homo sapiens, UniProt Q8TD08).
T4 sequence (Q8TD08 1-544): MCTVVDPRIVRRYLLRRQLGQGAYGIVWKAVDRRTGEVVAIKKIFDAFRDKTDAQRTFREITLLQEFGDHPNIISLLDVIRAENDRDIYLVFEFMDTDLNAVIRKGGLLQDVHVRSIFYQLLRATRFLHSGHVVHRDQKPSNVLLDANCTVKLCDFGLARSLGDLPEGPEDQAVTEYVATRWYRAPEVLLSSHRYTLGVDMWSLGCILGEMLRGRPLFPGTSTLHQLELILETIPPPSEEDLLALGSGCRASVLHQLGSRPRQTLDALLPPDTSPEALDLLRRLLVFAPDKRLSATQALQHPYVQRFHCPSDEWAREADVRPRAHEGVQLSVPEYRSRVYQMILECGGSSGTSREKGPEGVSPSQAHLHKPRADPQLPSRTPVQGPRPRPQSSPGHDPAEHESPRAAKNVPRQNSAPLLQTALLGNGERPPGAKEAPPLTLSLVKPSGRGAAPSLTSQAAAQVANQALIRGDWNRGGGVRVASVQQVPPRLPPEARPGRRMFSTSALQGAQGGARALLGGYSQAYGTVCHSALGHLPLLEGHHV
As to conditions: read-out: %Inh ERK8.

Take `O=c1cc(N2CCOCC2)nc2n(Cc3cccc(Cl)c3Cl)c(C3CC3)nn12` [UNC10225469A]: the inhibition at 1 µM at ACVR1 is 0%; at CLK4 it was 0%; at DLK, 0%; on EPHB6, 33%; at ERK8, 13%.

`COc1cccc(OC)c1C(=O)Nc1cccc(-c2nn3ccccc3c2-c2ccnc(Nc3cccc(F)c3)n2)c1` [UNC10225310A]: the inhibition at 1 µM at ACVR1 is 17%; on CLK4 it was 0%; at DLK, 0%; on EPHB6, 42%; at ERK8, 3%.

Consider `CS(=O)(=O)Cc1ccc(Nc2nccc(-c3c(-c4cccc(NC(=O)C5CCCCC5)c4)nn4ncccc34)n2)cc1` [UNC10225159A], for which the inhibition at 1 µM on ACVR1 is 18%; at CLK4 it was 0%; on DLK, 41%; at EPHB6, 42%; on ERK8, 0%.

For `Cc1ccc(NC(=O)Nc2cccc(C(F)(F)F)c2)cc1` [UNC10225187A], the inhibition at 1 µM at ACVR1 stood at 10%; on CLK4, 0%; on DLK it was 0%; at EPHB6 it was 21%; at ERK8 it was 0%.

As for `Cn1cc(-c2cnc(N)c3c(-c4ccc5c(c4)CCN5C(=O)Cc4ccccc4)csc23)cn1` [UNC10225012A], the inhibition at 1 µM at ACVR1 was found to be 7%; on CLK4 it was 0%; on DLK, 0%; at EPHB6, 98.3%; at ERK8, 11%.
